From patent US11965126B2, “Flame retardant for thermosetting resin including aromatic phosphoric acid ester, thermosetting resin composition including same, and cured material and application of same” (priority 2018, dated 2024)
Where two headings read alike, the source gives them in different places.

Test: Solvent solubility of flame retardants
Format: physicochemical
Details: for Solvent solubility compared with FR4 and FR5: comparison with traditionally-known phosphorus-type flame retardants FR4 and FR5
Experimental: 5 g of a flame retardant was added repeatedly to 100 mL of the following respective solvents at a temperature of 20° C. until the undissolved flame retardant was detected; and a largest amount of the flame retardant dissolved was measured. This largest amount was considered to be solvent solubility. • Solvents: toluene, methyl ethyl ketone (MEK), and propylene glycol monomethyl ether (PM) Materials for Synthesizing Aromatic Phosphoric Acid Esters
Flame retardants FR1 to FR4 as the flame retardants for thermosetting resin were evaluated for solvent solubility by the above method.

[1] = methyl ethyl ketone, 20° C., largest amount dissolved, added in 5 g portions
[2] = propylene glycol monomethyl ether, 20° C., largest amount dissolved, added in 5 g portions
[3] = toluene, 20° C., largest amount dissolved, added in 5 g portions

SMILES | Solvent solubility compared with FR4 and FR5 | Solvent solubility, MEK [1] [g/100 mL] | Solvent solubility, PM [2] [g/100 mL] | Solvent solubility, Toluene [3] [g/100 mL] | Solvent solubility, MEK [g/100 mL] | Solvent solubility, PM [g/100 mL] | Solvent solubility, Toluene [g/100 mL]
Cc1cccc(C)c1OP(=O)(Oc1ccc(C2(c3ccc(OP(=O)(Oc4c(C)cccc4C)Oc4c(C)cccc4C)cc3)CC(C)CC(C)(C)C2)cc1)Oc1c(C)cccc1C (centres unmarked) [FR1] | superior in solvent solubility | 135 | 85 | 140 |  |  | 
Cc1cccc(C)c1OP(=O)(Oc1ccc(C2(c3ccc(OP(=O)(Oc4c(C)cccc4C)Oc4c(C)cccc4C)cc3)CCCCCCCCCCC2)cc1)Oc1c(C)cccc1C [FR2] | superior in solvent solubility | 50 | 10 | 130 |  |  | 
Cc1cccc(C)c1OP(=O)(Oc1cccc(OP(=O)(Oc2c(C)cccc2C)Oc2c(C)cccc2C)c1)Oc1c(C)cccc1C [FR3, 1,3-phenylenebis(di-2,6-xylyl phosphate), reference compound] |  |  |  |  | 55 | 10 | 75
O=[PH]1Oc2ccccc2-c2ccccc21 (centres unmarked) [FR5, 9,10-dihydro-9-oxa-10-phosphaphenanthrene-10-oxide, reference compound] |  | 5 | 15 | <5 |  |  | 
